One data set addresses T1, HO-1 (rat spleen) (Rattus norvegicus, UniProt P06762).
T1 construct: Spleen microsomes were used as a source of HO-1; from tissue; host or cells: spleen microsomal fraction of adult male Sprague-Dawley rats
T1 sequence (P06762 1-289): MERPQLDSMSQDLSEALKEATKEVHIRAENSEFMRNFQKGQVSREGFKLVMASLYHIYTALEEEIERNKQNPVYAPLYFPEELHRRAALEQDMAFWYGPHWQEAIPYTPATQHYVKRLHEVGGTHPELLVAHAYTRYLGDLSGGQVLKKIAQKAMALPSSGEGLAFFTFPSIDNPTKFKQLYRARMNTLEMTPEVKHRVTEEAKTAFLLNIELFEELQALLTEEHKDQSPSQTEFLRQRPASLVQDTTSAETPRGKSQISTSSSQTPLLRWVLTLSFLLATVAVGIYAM
Nature of the data set: HO enzymatic activity in rat spleen microsomal fraction (CO formed from methemalbumin, gas chromatography). In kind it is biochemical.

The target in another data set is T2, HO-2 (rat brain) (Rattus norvegicus, UniProt P23711).
T2 construct: brain microsomes were used as a source of HO-2; from tissue; host or cells: brain microsomal fraction of adult male Sprague-Dawley rats
T2 sequence (P23711 1-315): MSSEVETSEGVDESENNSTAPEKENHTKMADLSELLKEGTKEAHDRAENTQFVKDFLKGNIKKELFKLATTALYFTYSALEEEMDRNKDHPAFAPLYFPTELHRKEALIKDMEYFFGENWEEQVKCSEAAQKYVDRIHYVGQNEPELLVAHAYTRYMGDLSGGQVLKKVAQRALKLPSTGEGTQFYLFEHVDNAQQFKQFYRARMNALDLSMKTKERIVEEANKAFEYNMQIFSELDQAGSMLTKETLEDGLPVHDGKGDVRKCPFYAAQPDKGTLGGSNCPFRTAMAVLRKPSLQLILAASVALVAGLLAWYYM
Nature of the data set: HO enzymatic activity in rat brain microsomal fraction (CO formed from methemalbumin, gas chromatography). In kind it is biochemical.

The mark [1] stands for this setting: rat spleen microsomes, average ± standard deviation of replicate experiments.
[2] abbreviates: rat brain microsomes, average ± standard deviation of replicate experiments.
Setting [3] is: rat spleen microsomes, average ± standard deviation of replicate experiments, read-out: IC50 HO-1 (rat spleen)/μM.
The mark [4] stands for this setting: rat brain microsomes, average ± standard deviation of replicate experiments, read-out: IC50 HO-2 (rat brain)/μM.

Where a name gives a salt, the structure may show the parent alone. Read-outs that look alike come from different tables or passages of the source.

Regarding `COc1ccc(SC[C@@H]2CO[C@@](CCc3ccc(Cl)cc3)(Cn3ccnc3)O2)cc1.Cl`, the melting point (as a rule, the temperature, or range, at which the solid turns liquid) fell in the range of 139 to 140 °C.

As to `C[C@H]1CO[C@](CCc2ccc(Cl)cc2)(Cn2ccnc2)O1.Cl`, the melting point lay within 172 to 173 °C.

Consider `Cl.Oc1ccc(OC[C@H]2CO[C@@](CCc3ccc(Cl)cc3)(Cn3ccnc3)O2)cc1`, for which the melting point is 128 to 130 °C.

For the compound `C[C@@H]1CO[C@](CCc2ccc(Cl)cc2)(Cn2ccnc2)O1.Cl`, the melting point fell in the range of 152 to 153 °C.

`Cl.Clc1ccc(CC[C@@]2(Cn3ccnc3)OC[C@@H](CSc3cccc(Br)c3)O2)cc1` displayed a melting point of 128 to 129 °C.

`Cl.Clc1ccc(CC[C@@]2(Cn3ccnc3)OC[C@@H](CSc3ccc(Cl)cc3)O2)cc1`: the melting point lay within 128 to 129 °C.

Take `Cl.Clc1ccc(CC[C@@]2(Cn3ccnc3)OC[C@@H](CSC3CCCCC3)O2)cc1`: the melting point was 172 to 173 °C.

The compound `Cl.c1ccc(CCC2(Cn3ccnc3)OCCO2)cc1` yielded a melting point of 164 to 165 °C.

Take `Cl.OC(CCc1ccc(F)cc1)Cn1ccnc1` (racemic): the melting point was in the range of 86 to 87 °C.

`Cl.Fc1ccc(CCC2(Cn3ccnc3)OCCO2)cc1`: the melting point was in the range of 153 to 154 °C.

In turn, `Cl.Clc1ccc(CC[C@@]2(Cn3ccnc3)OC[C@H](COc3ccc(C45CC6CC(CC(C6)C4)C5)cc3)O2)cc1` showed a melting point of 132 to 134 °C.

Turning to `C[C@H]1CO[C@@](CCc2ccc(Cl)cc2)(Cn2ccnc2)O1.Cl`, the melting point lay within 148 to 149 °C.

As for `Cl.Clc1ccc(CC[C@@]2(Cn3ccnc3)OC[C@@H](COc3ccc(Br)cc3)O2)cc1` (stereo in doubt), the melting point was 55 to 57 °C.

`Cl.Clc1ccc(CC[C@@]2(Cn3ccnc3)OC[C@@H](CSc3ccc(Br)cc3)O2)cc1`: the melting point lay in the range of 141 to 142 °C.

The compound `Cl.Clc1ccc(CC[C@@]2(Cn3ccnc3)OC[C@@H](COc3ccc(I)cc3)O2)cc1` (stereo in doubt) gave a melting point of 113 to 114 °C.

`Cl.Fc1ccc(SC[C@@H]2CO[C@@](CCc3ccc(Cl)cc3)(Cn3ccnc3)O2)cc1` had a melting point of 112 to 113 °C.

Regarding `Cl.FC(F)(F)c1ccc(SC[C@@H]2CO[C@@](CCc3ccc(Cl)cc3)(Cn3ccnc3)O2)nc1`, the melting point was 156 to 157 °C.

Consider `CC(=O)Cn1ccnc1` [1-(1H-Imidazol-1-yl)-propan-2-one], for which the “IC50 HO-1 (rat spleen)/μM” value on HO-1 (rat spleen) (setting [1]) is on record as “Not Active”. Besides, the “IC50 HO-2 (rat brain)/μM” value against HO-2 (rat brain) (setting [2]) is “Not Active”.

As for `c1cn(CCCCCCCCCCCCn2ccnc2)cn1` [1,12-bis-(1H-imidazol-1-yl)dodecane dihydrochloride], the values for the IC50 on HO-1 (rat spleen) (setting [3]) and at HO-2 (rat brain) (setting [4]) were roughly 4 µM and roughly 9 µM, respectively.

Consider `N#Cc1ccc(OCC2CO[C@@](CCc3ccc(Cl)cc3)(Cn3ccnc3)O2)cc1` (stereo in doubt) [(2R,4S)-4-{2-[2-(4-chlorophenyl)ethyl]-2-imidazol-1-ylmethyl-[1,3]dioxolan-4-ylmethoxy}-benzonitrile hydrochloride], for which the figures for the IC50 on HO-1 (rat spleen) (setting [3]) and at HO-2 (rat brain) (setting [4]) were 0.67 ± 0.02 µM and 1.7 ± 0.2 µM, respectively.

Consider `O=C(Cn1cncn1)c1ccc([N+](=O)[O-])cc1` [1-(4-Nitro-phenyl)-2-[1,2,4]triazol-1-yl-ethanone hydrochloride], for which the IC50 is 19.2 ± 0.5 µM at HO-1 (rat spleen) (setting [3]) and greater than 100 µM on HO-2 (rat brain) (setting [4]).

Regarding `COC(=O)Nc1nc2ccc(C(=O)c3cccs3)cc2[nH]1` [Nocodazole, reference compound], the IC50 on HO-1 (rat spleen) (setting [3]) and on HO-2 (rat brain) (setting [4]) was greater than 100 µM in each case.

For `O=C(Cn1ccnc1)c1ccc2c(c1)CCCC2` [2-imidazol-1-yl-1-(5,6,7,8-tetrahydro-naphthalen-2-yl)-ethanone hydrochloride], the IC50 on HO-1 (rat spleen) (setting [3]) is 4 ± 1 µM; at HO-2 (rat brain) (setting [4]), 6.7 ± 0.3 µM.

In the case of `Cl.OC(Cn1ccnc1)Cn1ccnc1` [1,3-Di-(1H-imidazol-1-yl)propan-2-ol dihydrochloride], the “IC50 HO-1 (rat spleen)/μM” value at HO-1 (rat spleen) (setting [1]) is reported as “Inactive”. The “IC50 HO-2 (rat brain)/μM” value against HO-2 (rat brain) (setting [2]) is reported as “Inactive”.

In the case of `CS(=O)(=O)c1nnn(CC(=O)CCc2ccccc2)n1` [1-(5-Methanesulfonyl-tetrazol-2-yl)-4-phenyl-butan-2-one], the IC50 at HO-1 (rat spleen) (setting [3]) and at HO-2 (rat brain) (setting [4]) was greater than 100 µM in each case.

For the compound `O=C(CCc1ccccc1)Cn1cnc(-c2ccccc2)n1` [4-Phenyl-1-(3-phenyl-[1,2,4]triazol-1-yl)-butan-2-one], the IC50 was 9 ± 2 µM on HO-1 (rat spleen) (setting [3]) and 90 ± 33 µM at HO-2 (rat brain) (setting [4]).

For `O=C(Cn1ccnc1)c1ccc(Cc2ccccc2)cc1` [1-(4-benzyl-phenyl)-2-imidazol-1-yl-ethanone hydrochloride], the IC50 came to 1.99 ± 0.05 µM at HO-1 (rat spleen) (setting [3]) and 2.3 ± 0.2 µM at HO-2 (rat brain) (setting [4]).

As for `Cc1nccn1CC(=O)CCc1ccc(Cl)cc1.Cl`, at HO-1 (rat spleen) (setting [1]), the “IC50 HO-1 (rat spleen)/μM” value is “INACTIVE”. For the same compound, the “IC50 HO-2 (rat brain)/μM” value on HO-2 (rat brain) (setting [2]) is “INACTIVE”.

As to `Clc1ccc(CC[C@@]2(Cn3ccnc3)OC[C@@H](CSc3ccc4ccccc4c3)O2)cc1` [(2R,4S)-1-[2-[2-(4-chloro-phenyl)-ethyl]-4-(naphthalen-2-ylsulfanylmethyl)-[1,3]dioxolan-2-ylmethyl]-1H-imidazole hydrochloride], the IC50 worked out at 0.9 ± 0.1 µM on HO-1 (rat spleen) (setting [3]) and 30 ± 4 µM at HO-2 (rat brain) (setting [4]).

In the case of `O=C(CCc1ccc(O)cc1)Cn1ccnc1` [4-(4-Hydroxyphenyl)-1-(1H-imidazol-1-yl)butan-2-one hydrochloride], the IC50 on HO-1 (rat spleen) (setting [3]) and on HO-2 (rat brain) (setting [4]) was greater than 100 µM in each case.

On to `O=C(CCn1ccnc1)C12CC3CC(CC(C3)C1)C2` [1-adamantan-1-yl-3-imidazol-1-yl-propan-1-one hydrochloride], for which the IC50 at HO-1 (rat spleen) (setting [3]) is 3.5 ± 0.8 µM; at HO-2 (rat brain) (setting [4]), roughly 100 µM.

Consider `COc1ccc(CCN2CCC(Nc3nc4ccccc4[nH]3)CC2)cc1`, for which the IC50 against HO-1 (rat spleen) and at HO-2 (rat brain) was greater than 100 µM throughout.

Consider `O=C(CCc1ccccc1)Cn1nc(Br)nc1Br` [1-(3,5-Dibromo-[1,2,4]triazol-1-yl)-4-phenyl-butan-2-one], for which the IC50 at HO-1 (rat spleen) (setting [3]) and on HO-2 (rat brain) (setting [4]) was greater than 100 µM each time.

`Brc1cccc(C2(Cn3ccnc3)OCCO2)c1` [1-[2-(3-bromo-phenyl)-[1,3]dioxolan-2-ylmethyl]-1H-imidazole hydrochloride]: the IC50 at HO-1 (rat spleen) (setting [3]) is 4 ± 0.7 µM; on HO-2 (rat brain) (setting [4]), greater than 100 µM.

In the case of `c1ccc(-n2ccnc2)cc1` [1-Phenyl-1H-imidazole hydrochloride], the IC50 at HO-1 (rat spleen) (setting [3]) and at HO-2 (rat brain) (setting [4]) was greater than 100 µM throughout.

Consider `O=C(CCc1ccccc1)Cn1nc(-c2ccccc2)nc1-c1ccccc1` [1-(3,5-Diphenyl-[1,2,4]triazol-1-yl)-4-phenyl-butan-2-one], for which the IC50 at HO-1 (rat spleen) (setting [3]) and on HO-2 (rat brain) (setting [4]) was greater than 100 µM in each case.

Turning to `O=C(CCc1ccccc1)Cn1cnc(Cl)c1Cl` [1-(4,5-Dichloro-imidazol-1-yl)-4-phenyl-butan-2-one hydrochloride], the IC50 on HO-1 (rat spleen) (setting [3]) and at HO-2 (rat brain) (setting [4]) was greater than 100 µM each time.

As for `Clc1ccc(CC[C@]2(Cn3ccnc3)OC[C@@H](CSc3ccc4ccccc4c3)O2)cc1` [(2S,4S)-2-[2-(4-chlorophenyl)ethyl]-2-[(1H-imidazol-1-yl)methyl]-4-[{(2-naphthyl)thio}methyl]-1,3-dioxolane hydrochloride], the IC50 at HO-1 (rat spleen) (setting [3]) is 14 ± 2 µM; on HO-2 (rat brain) (setting [4]), 62 ± 7 µM.

On to `Brc1ccc(CNCc2cccnc2)cc1`, for which the IC50 on HO-1 (rat spleen) (setting [3]) and at HO-2 (rat brain) (setting [4]) was greater than 100 µM each time.

As to `c1ccc2[nH]cnc2c1` [Benzimidazole, reference compound], the IC50 at HO-1 (rat spleen) (setting [3]) and at HO-2 (rat brain) (setting [4]) was greater than 100 µM throughout.

On to `O=C(Cn1ccnc1)c1cccs1`, for which the IC50 on HO-1 (rat spleen) (setting [3]) and on HO-2 (rat brain) (setting [4]) was greater than 100 µM each time.

With `Nc1ccccc1SC[C@H]1CO[C@](CCc2ccc(Cl)cc2)(Cn2ccnc2)O1` [(2S,4R)-2-[2-(4-chlorophenyl)ethyl]-2-[(1H-imidazol-1-yl)methyl]-4-[{(2-aminophenyl)thio}meth-yl]-1,3-dioxolane hydrochloride], the IC50 on HO-1 (rat spleen) (setting [3]) is roughly 4.2 µM; on HO-2 (rat brain) (setting [4]), greater than 100 µM.

These data come from US20140155445A1, “Compounds and Methods for Treating Cancer and Diseases of the Central Nervous System” (Osta Biotechnologies Inc., priority 2007, published 2014).
